Data from patent US6291247A, “Methods of screening for factors that disrupt neurotrophin conformation and reduce neurotrophin biological activity” (priority 1996, dated 2001).
Bridges are numbered along the chain shown (N, C = ends). Where no end group is shown, it is not given here.

Tests used:
PC12 cells [1] = assay: Toxicity to PC12 cells; format: cell-based, rat
PC12 cells [2] = assay: Toxicity to PC12 cells; format: cell-based, rat; conditions: 100 μM
Procedure: Effects of divalent ions on NGF mediated survival and toxicity was evaluated using a colorimetric assay for the lysosomal enzyme acid phosphatase to determine cell number (Connolly, D. T., Knight, M. B., Harakas, N. K, Wittwer, A. J. & Feder, J. Determination of the number of endothelial cells in culture using an acid phosphatase assay. Anal. Biochem. 152, 136-140 (1986); Ueda, Y., Walsh, E., Nakanishi H. & Yoshida, K. A. colorometric assay method for the evaluation of neurotrophic activity in vitro. Neurosci. Lett. 165, 203-207 (1994)). […] To evaluate toxicity, the cells were seeded and maintained without NGF in RPMI with 10% heat inactivated donor horse serum and 5% fetal calf serum in the presence of additives. Loss in viable cell number was determined and expressed as a percent of control. NGF rescues PC12 cells from cell death in serum-free medium(Greene, L. A. Nerve growth factor prevents the death and stimulates neuronal differentiation of clonal PC12 pheochromocytoma cells in serum-free medium. J. Cell Biol. 78, 747-755 (1978)). NGF-dependent survival was assessed by harvesting PC12 cells in balanced salt solution followed with washing by 4 cycles of suspension and centrifugation in serum-free RPMI prior to seeding in 96 well plates. After incubation with additives, medium was removed from the wells and cells washed once with 200 μl PBS. Buffer containing 0.1M sodium acetate pH 5.5, 0.1% Triton X-100 and 10 mM p-nitrophenyl phosphate (Sigma 104 phosphatase substrate) was added to each well (100 μl). Plates were incubated at 37° C. for 3 hours. The reaction was stopped by the addition of 10 μl/well of 1N sodium hydroxide and the color development measured at 405 nm using a microplate reader. The relationship between cell number and enzyme activity was linear over the range 1000 to 15,000 cells.
To explore the ability of other transition metals to influence the biological activities of NGF, a series of cations known to mimic in certain respects the binding of zinc to proteins were tested. […] For this reason these ions were not tested in NGF- dependant growth phenomena. […] As these studies appeared to indicate potentially complex results upon metal ions binding to NGF, a receptor crosslinking system where specific receptor types could be identified was utilized.

[3] = system: dorsal root ganglion (DRG) neurons; assay: NGF-dependent neurite growth of ED8 chick DRG neurons (FIG. 6, Terasaki plates); format: cell-based
Procedure: FIG. 6 is a graph showing the ability of R11 to inhibit the activity of NGF in vitro using a biological assay system. […] Dissociated cells enriched for sensory neurons were prepared from embryonic day 8 (ED8) chick dorsal root ganglion (DRG) as described (Sutter et al., J. Biol. Chem. 254: 5972-5982 (1979)). Neurons were seed into wells of Terasaki plates treated sequentially with poly-D-lysine and laminin at a density of 800-1000 cells/well in "synthetic" Dulbecco's modified Eagle medium (Bottenstein et al., Proc. Natl. Acad. Sci. USA 76: 514-517 (1979)) containing 1% fetal calf serum and NGF at […]. The cells were incubated with the additives indicated at 37° C. in a 5% CO2 atmosphere At 18-20 hours, the cells were fixed in 4% formaldehyde in phosphate-buffered saline and scored for neurite growth. The cells on the entire lower horizontal surface of the well were counted using an inverted microscope fitted with phase contrast optics. A neurite was scored if its caliber from origin to terminal was constant and its length was equal to or greater than 1.5 cell body diameters. Neurite growth was corrected for background (no NGF) growth in the presence and absence of peptide.
Such a profile is not typical of a competitive inhibitor. That is, a different dose response profile would be expected if R11 were simply competing with NGF for binding to a receptor. Neither of the less constrained synthetic Intermediates of R11, i.e., R11 (linear) or R11 (monocyclic), was as effective in blocking NGF-dependent neurite growth concentrations up to 200 μM.

NGF = target: T1, NGF (Mus musculus, UniProt P01139); assay: Cross-linking of NGF protomers in a cell-free system (Example 6); format: biochemical; conditions: R11 analogues, concentration not given
T1 construct: homodimer

p75 = assay: Affinity cross-linking of 125I-NGF to p75 on PC12 cells; format: binding, rat; conditions: for Inhibition of p75 Interaction: 200 μM peptide, 0.1 nM 125I-NGF, PC12 cells
Procedure: The ability of the peptides under study to interfere with binding of NGF to NGF receptors was evaluated by analysis of inhibition of the chemical cross-linking of ^251 I-NGF to the common neurotrophin receptor p75 (Chao, J. Neurobiol. 25:1373-1385 (1994)) and the specific NGF receptor TrkA (Barbacid, J. Neurobiol. 25: 1386-1403 (1994)). Immunoprecipitation and polyacrylamide gel electrphoresis of cross linked receptors allowed identification of both receptors, as shown in FIG. 7A. […] At concentrations of 200 μM, neither R11(l) nor R11(m) were able to inhibit greater than 50% of the observed ^125 I-labelling.
The ability of the peptides derived from the 68-58/108-110 region of NGF to antagonize NGF interaction with the p75 and TrkA receptors was determined The peptides tested were bicyclic (BC) 68-58/108-110, cyclic (C) 68-58/108-110, and linear (L) 68-58/108-110, each of which are illustrated in FIGS. 2 and 5D
Receptor cross-linking studies were performed on PC12 rat pheochromocytoma cells (ATCC CRL 1721; Greene et al., Proc. Natl. Acad. Sci. USA 73: 2424-2432 (1976)) which were maintained in RPMI1640 (Gibco) supplemented with 10% fetal calf serum (Gibco). Cells were harvested by incubation and trituration in Ca^2+ and Mg^2+ free Gey's balanced salt solution, washed and suspended in 10 mM HEPES buffer (pH 7.35) containing 125 mM NaCl, 4.8 mM KCl, 1.3 mM CaCl2, […], 1.2 mM KH2 PO4, 1 g/L sucrose and 1 g/L bovine serum albumin (HEPES Krebs Ringer buffer, HKR buffer) at 10^6 cells/mL. Subsequent procedures were carried out at 4° C. unless otherwise noted.
For receptor crosslinking, ^125 I-NGF was prepared by the method of Sutter et al. (J. Biol. Chem. 254: 5972-5982 (1979)) from NGF isolated from mouse submaxillary gland (as described in Mobley et al., Biochemistry 15:1543 (1976)) obtained from Cedarlane.
[…] Control PC12 cells were incubated in HKR buffer in the presence of ^125 I-NGF only (no NGF peptide).
Receptor proteins were cross-linked with either 0.4 mM bis(sulfosuccinimidyl)suberate (BS^3, Pierce) for TrkA, or a combination of 2 mM […] (EDC) and 2 mM N-hydroxysulfosuccinimide (S-NHS) for p75^NTR as indicated. All cross-linking agents (from Pierce) were dissolved in water and added in 20 μL aliquots and the reaction allowed to proceed for 30 min at 25° C. On completion of the cross-linking reaction, the cells were washed three times in HKR buffer with BSA at 4° C. to remove excess free radiolabelled ligand and reagents. The cells were solubilized in 100 μL SDS sample buffer Samples were separated on a modified Laemmli discontinues acrylamide gel system (Laemmli, Nature 227:680 (1970)) using 4% SDS-PAGE stacking gel and a gradient urea polyacrylamide separating gel ranging from 4.5% acrylamide/18% urea to 7.5% acrylamide/48% urea. The gels were fixed and processed for autoradiography using -70° C. exposure with Kodak XAR film and manual processing (FIG. 7B).
For positive receptor identification, immunoprecipitation studies were performed. Samples of 10^7 cells in 1 mL HKR buffer were cross-linked under the conditions described above, washed in HKR buffer and solubilized in non-denaturing lysis buffer (1% NP40, 10% glycerol, 1 mM phenylmethylsulfonylfluoride, 10 μg/mL leupeptin and 0.5 mM o-vanadate in Tris-buffered saline) (Kaplan et al., Nature 350:1 158-160 (1991)). The solutions were clarified by centrifugation and immunoprecipitated with either mAb 192 (monoclonal antibody for p75; Cedarlane) or rabbit anti-TrkA, which had been raised against a COOH-terminal peptide of TrkA. The ^125 I-NGF cross-linked receptor-antibody complexes were isolated using 50 μL of a 50% solution of rabbit anti-mouse agarose (Sigma; for mAb 192) or protein A-Sepharose (Pharmcia; for anti-Trk) equilibrated in lysis buffer. Immunoprecipitates were washed three times in lysis buffer and the pellets denatured in SDS reducing sample buffer. […]

T1 sequence (P01139 122-239): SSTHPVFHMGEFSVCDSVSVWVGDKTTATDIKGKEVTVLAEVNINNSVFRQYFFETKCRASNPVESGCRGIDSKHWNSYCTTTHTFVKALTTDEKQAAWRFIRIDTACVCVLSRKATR

## [Cd+2] [Cd^2+]
PC12 cells [1]
  Toxicity to PC12 cells in serum-free conditions: toxic to PC12 cells
PC12 cells [2]
  Toxicity (PC12 cell viability): 63 ± 10 % control

## [Co+2] [Co^2+]
PC12 cells [1]
  Toxicity to PC12 cells in serum-free conditions: toxic to PC12 cells
PC12 cells [2]
  Toxicity (PC12 cell viability): 52 ± 14 % control

## [Hg+2] [Hg^2+]
PC12 cells [1]
  Toxicity to PC12 cells in serum-free conditions: toxic to PC12 cells
PC12 cells [2]
  Toxicity (PC12 cell viability): 3 ± 0.8 % control

## BR11: same amino acid composition as R11, except that the CVC domain has been moved to appear at the N-terminus (CVCCRASNPVESGC; disulfide 1-14, 3-4)
[3]; concentrations of 500 μk (so in the source)
  Inhibition of NGF-mediated neurite growth: did not inhibit NGF-mediated neurite growth
NGF
  Cross-linking of NGF promoters (NGF dimer disruption assay): not effective in influencing the crosslinking of NGF promoters

## NH2 -Cys-Gly-Ser-Glu-Val-Pro-Asn-Ser-Ala-Arg-Cys-Cys-Val-Cys-OH (H-CGSEVPNSARCCVC-OH; not fully specified; printed as NH2 -Cys-Gly-Ser-Glu-Val-Pro-Asn-Ser-Ala-Arg-Cys-Cys-Val-Cys-OH; cysteine pairing not given here) [R11(l), linear peptide R11]
p75; 200 μM
  Inhibition of the observed 125I-labelling (p75): ≤ 50%
p75; listed as L
  Inhibition of p75 Interaction: no inhibition
[3]; concentrations up to 200 μM
  Blocking of NGF-dependent neurite growth: Neither of the less constrained intermediates R11(l) or R11 (m) were effective

## NH2 -Cys-Gly-Ser-Glu-Val-Pro-Asn-Ser-Ala-Arg-Cys-Cys-Val-Cys-OH (H-CGSEVPNSARCCVC-OH; not fully specified; printed as NH2 -Cys-Gly-Ser-Glu-Val-Pro-Asn-Ser-Ala-Arg-Cys-Cys-Val-Cys-OH; cysteine pairing not given here) [R11(m), monocyclic R11 with a single disulfide bond]
p75; listed as C
  Inhibition of p75 Interaction: no inhibition

## SR11: identical amino acid composition to R11 except that the eleven N-terminal residues have been inverted to the naturally occurring NGF sequence 58-68 (CRASNPVESGCCVC; disulfide 1-14, 11-12)
NGF
  Cross-linking of NGF promoters (NGF dimer disruption assay): equally etude in reducing crosslinking of NGF promoters as R11
